pIC50: −log10 of the molar value. Where a SMILES comes first, the peptide text is derived from it. Bridges are numbered along the chain shown (N, C = ends). [ ]: non-standard residue; d: D form. Nle = CCCC[C@H](N)C(=O)O; Orn = NCCC[C@H](N)C(=O)O

Results on 2 compounds are retold here after patent US20240182531A1, “KV1.3 Blockers” (priority 2021, published 2024).

This assay concerns the target T1, human Kv1.3 voltage-gated K+ channel (Homo sapiens, UniProt P22001).
T1 construct: host or cells: CHO-DUKX
Nature of the assay: Kv1.3 blocker activity in FLIPR thallium assay. The format is cell-based. How it is done:
A human Kv1.3 voltage-gated K+ channel cell line was purchased from Perkin Elmer (#TDS-AX-010-C-1). The cell line is based on CHO-DUKX cells stably transfected with the human Kv1.3 voltage-gated K+ channel.
The cell line was grown in MEMα with nucleotides, GlutaMAX (Gibco #32571028), 10% Foetal Bovine Serum (FBS), 0.4 mg/ml Geneticin, 100 units/ml Penicillin, and 100 μg/ml Streptomycin and seeded at 10.000 cells/well in black poly-D-lysine-coated 96 well plates.
The FluxOR™ Potassium Ion Channel Assay (Invitrogen #F10016) was used to quantitate flux of thallium ions into the cells as a response to Kv1.3 activation with a stimulus buffer causes depolarization of the cell membrane, thereby generating a fluorescent signal, proportional to channel activity. The assay was performed as described by the assay kit manufacturer including a compound pre-incubation step (30 min, 37° C., 5% CO2) in assay buffer containing 0.02% W/v casein from bovine milk (Sigma #C4765) prior to cell membrane depolarization using a final stimuli buffer composition corresponding to 0.2× FluxOR™ chloride-free buffer, 5 mM K2SO4, 1 mM Tl2SO4. The fluorescence responses were recorded and quantified (maximum response at 50 s, 37° C.) using the FLIPR® Tetra High Throughput Screening System (Molecular Devices, Inc.).
IC50 can be regarded as a measure of potency of inhibition for the respective compound. The IC50 value is a measure of the concentration of an inhibitor required to achieve half of that compound's maximal inhibition of ion channel activity in a given assay.

T1 sequence (P22001 whole entry): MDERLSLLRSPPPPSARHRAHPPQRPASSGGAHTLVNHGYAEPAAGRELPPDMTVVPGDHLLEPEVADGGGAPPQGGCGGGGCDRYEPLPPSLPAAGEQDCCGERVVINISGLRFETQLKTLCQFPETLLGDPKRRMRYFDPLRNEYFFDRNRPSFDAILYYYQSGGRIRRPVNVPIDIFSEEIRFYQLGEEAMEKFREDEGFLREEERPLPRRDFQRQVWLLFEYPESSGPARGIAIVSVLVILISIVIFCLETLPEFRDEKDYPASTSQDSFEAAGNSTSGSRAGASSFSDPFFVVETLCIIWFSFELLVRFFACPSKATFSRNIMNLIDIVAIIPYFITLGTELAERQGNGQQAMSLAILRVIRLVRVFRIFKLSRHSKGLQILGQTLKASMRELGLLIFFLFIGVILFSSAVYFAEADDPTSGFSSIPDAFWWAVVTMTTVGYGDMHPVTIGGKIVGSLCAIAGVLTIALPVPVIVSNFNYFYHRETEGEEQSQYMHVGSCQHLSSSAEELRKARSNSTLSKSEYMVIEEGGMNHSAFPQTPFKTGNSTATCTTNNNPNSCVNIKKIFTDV

In the case of `CCCC[C@H](NC(=O)[C@@H]1CCCN1)C(=O)N[C@@H](CCC(=O)O)C(=O)N[C@@H](CCCC)C(=O)N[C@@H](CCCNC(=N)N)C(=O)N[C@H]1CSSC[C@@H]2NC(=O)[C@H](CCCCN)NC(=O)CNC(=O)[C@H](Cc3ccccc3)NC(=O)[C@H]([C@@H](C)CC)NC(=O)[C@H](CO)NC(=O)CNC(=O)[C@H]([C@@H](C)CC)NC(=O)[C@H](C)NC(=O)[C@H](C)NC(=O)[C@H](CC(C)C)NC(=O)[C@@H]3CSSC[C@@H](C(=O)N[C@@H](Cc4ccc(O)cc4)C(=O)N4CCC[C@H]4C(=O)N[C@@H](CCCNC(=N)N)C(=O)O)NC(=O)[C@H](CCCCN)NC(=O)[C@H](CSSC[C@H](NC(=O)[C@H](CCC(=O)O)NC(=O)[C@H](C(C)C)NC(=O)[C@H](CCCN)NC(=O)[C@H](C)NC(=O)[C@H](CO)NC1=O)C(=O)N[C@@H](CCCCN)C(=O)N[C@@H](CCC(N)=O)C(=O)N[C@@H](CCCCN)C(=O)N3)NC(=O)[C@H](CCCCN)NC(=O)[C@H](CCCCN)NC(=O)[C@H](CC(N)=O)NC(=O)[C@H](CCCC)NC2=O` [compound 6] (H-P[Nle]E[Nle]RCSA[Orn]VECKQKCLAAIGSIFGKC[Nle]NKKCKCYPR-OH; disulfide 6-27, 12-32, 16-34), the pIC50 – broadly, the IC50 on a negative log10 scale, so that one unit is a factor of ten – was 7.48.
Compound `CCCC[C@H](NC(=O)[C@@H]1CCCN1)C(=O)N[C@@H](CCC(=O)O)C(=O)N[C@@H](CCCC)C(=O)N[C@@H](CCCNC(=N)N)C(=O)N[C@H]1CSSC[C@@H]2NC(=O)[C@H](CCCCN)NC(=O)CNC(=O)[C@H](Cc3ccccc3)NC(=O)[C@H]([C@@H](C)CC)NC(=O)[C@H](CO)NC(=O)CNC(=O)[C@H]([C@@H](C)CC)NC(=O)[C@H](C)NC(=O)[C@H](C)NC(=O)[C@H](CC(C)C)NC(=O)[C@@H]3CSSC[C@@H](C(=O)N[C@@H](Cc4ccc(O)cc4)C(=O)N4CCC[C@H]4C(=O)N[C@@H](CCCNC(=N)N)C(=O)O)NC(=O)[C@H](CCCCN)NC(=O)[C@H](CSSC[C@H](NC(=O)[C@H](CCC(=O)O)NC(=O)[C@H](C(C)C)NC(=O)[C@H](CO)NC(=O)[C@H](C)NC(=O)[C@H](CCCN)NC1=O)C(=O)N[C@@H](CCCCN)C(=O)N[C@@H](CCC(N)=O)C(=O)N[C@@H](CCCCN)C(=O)N3)NC(=O)[C@H](CCCCN)NC(=O)[C@H](CCCCN)NC(=O)[C@H](CC(N)=O)NC(=O)[C@H](CCCC)NC2=O` [compound 2] (H-P[Nle]E[Nle]RC[Orn]ASVECKQKCLAAIGSIFGKC[Nle]NKKCKCYPR-OH; disulfide 6-27, 12-32, 16-34) gave a pIC50 of 9.92.
